In patent publication US8563559B2 (Rigel Pharmaceuticals, Inc., priority 2006, dated 2013) one finds IC50 data, which are given here for 14 molecules.

In one assay the target is T1, Axl (Homo sapiens, UniProt P30530).
T1 construct: endogenous in cells; host or cells: HeLa
T1 sequence (P30530 26-894): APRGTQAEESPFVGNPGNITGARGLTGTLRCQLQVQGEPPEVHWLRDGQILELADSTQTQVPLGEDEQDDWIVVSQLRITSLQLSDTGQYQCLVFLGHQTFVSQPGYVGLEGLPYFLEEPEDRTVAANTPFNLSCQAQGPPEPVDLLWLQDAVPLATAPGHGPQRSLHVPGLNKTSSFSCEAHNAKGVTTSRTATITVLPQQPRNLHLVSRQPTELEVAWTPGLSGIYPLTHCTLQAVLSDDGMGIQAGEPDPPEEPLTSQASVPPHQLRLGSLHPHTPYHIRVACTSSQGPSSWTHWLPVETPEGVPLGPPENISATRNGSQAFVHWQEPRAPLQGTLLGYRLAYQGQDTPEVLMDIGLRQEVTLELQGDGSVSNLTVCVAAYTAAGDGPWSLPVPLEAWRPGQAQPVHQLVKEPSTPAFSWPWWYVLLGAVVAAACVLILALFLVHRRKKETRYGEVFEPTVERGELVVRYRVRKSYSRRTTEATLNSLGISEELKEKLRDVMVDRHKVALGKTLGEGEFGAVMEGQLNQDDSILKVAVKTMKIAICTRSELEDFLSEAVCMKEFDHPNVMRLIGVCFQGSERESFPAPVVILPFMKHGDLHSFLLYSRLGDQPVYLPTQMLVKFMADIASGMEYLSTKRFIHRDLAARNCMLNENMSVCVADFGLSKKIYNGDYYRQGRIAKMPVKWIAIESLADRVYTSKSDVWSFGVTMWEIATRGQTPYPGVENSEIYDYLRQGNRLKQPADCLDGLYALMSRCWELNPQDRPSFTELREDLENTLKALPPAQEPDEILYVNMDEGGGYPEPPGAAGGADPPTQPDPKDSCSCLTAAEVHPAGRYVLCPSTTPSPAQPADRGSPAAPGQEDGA
Put plainly: Phospho-AKT in-cell Western assay (inhibition of Axl activity). In kind it is cell-based. The following applies: Table 1, formula (Ia); Hela cells, Axl antibody cross-linking stimulation, phospho-Akt chemiluminescence normalized to relative cell number. The procedure:
The compounds of the invention were tested in the following assay for their ability to inhibit Axl activity.
Phospho-AKT in-Cell Western Assay
• Cell culture plate: 96 well assay plate (Corning 3610), white, clear bottom, tissue-culture treated. • Cells: Hela cells. • Starvation medium: For Axl stimulation: 0.5% FCS (fetal calf serum) in DMEM, plus Axl/Fc (extracellular domain of AXL fused to immunoglobulin Fc region) (R&D, 154-AL) 500 ng/mL. • For EGF (epidermal growth factor) stimulation: 0.5% FCS in DMEM (Dulbecco's modified Eagles medium). • Poly-L-Lysine 0.01% solution (the working solution): 10 μg/ml, dilute In PBS (phosphate buffered saline). • Axl antibody cross-linking: • 1st: Mouse anti-Axl (R&D, MAB154). • 2nd: Biotin-SP-conjugated AffiniPure goat anti-mouse IgG (H+L) (Jackson ImmunoResearch #115-065-003). • Fixing buffer: 4% formaldehyde in PBS. • Wash buffer: 0.1% TritonX-100 in PBS. • Quenching buffer: 3% H2O2, 0.1% Azide in wash buffer, Azide and hydrogen peroxide 1(H2O2) are added fresh. • Blocking buffer: 5% BSA in TBST (tris buffered saline plus 0.1% Tween 20). • Primary antibody: Rabbit anti-human Phospho-Akt antibody (Cell Signaling 9271): 1×250 diluted in blocking buffer. • Secondary antibody: HRP (horse radish peroxidase)-conjugated Goat anti-Rabbit secondary, stock solution: Jackson ImmunoResearch (Goat anti-Rabbit HRP, #111-035-144) 1:1 diluted in glycerol, store at −20° C. The working solution: 1×2000 dilution of stock in blocking buffer. • Chemiluminescent working solution (Pierce, 37030): SuperSignal ELISA (enzyme linked immunosorbant assay) Pico Chemiluminescent substrate. • Crystal Violet solution: Stock: 2.5% Crystal violet in methanol, filtered and kept at ambient temperature. The working solution: dilute the stock 1:20 with PBS immediately before use. • 10% SDS: working solution: 5% SDS (sodium dodecylsulfate), diluted in PBS Methods: Day 1:
A 96 well TC (tissue culture treated) plate was coated with 10 μg/mL poly-L-Lysine at 37° C. for 30 min, washed twice with PBS, and air-dried for 5 minutes before cells were added. Hela cells were seeded at 10,000 cells/well and the cells were starved in 100 μL starvation medium containing Axl/Fc for 24 hrs.
The cells were pre-treated with test compounds by adding 100 μL of 2× test compound to the starvation medium on the cells. The cells were incubated at 37° C. for 1 hr before stimulation.
The cells were stimulated by Axl-antibody cross-linking as follows: A 5×1st/2nd Axl antibody mixture was made (37.5 μg/mL 1st/100 μg/mL 2nd) in starvation medium and nutated at 4° C. with thorough mixing for 1-2 hours for clustering. The resulting mix was warmed to 37° C. 50 μL of 5×Axl 1st/2nd of antibody cluster was added to the cells and the cells were incubated at 37° C. for 5 min.
After 5 minutes stimulation, the plate was flicked to remove medium and the plate was tapped onto paper towels. Formaldehyde (4.0% in PBS, 100 μL) was added to fix the cells and the cells were incubated at ambient temperature for 20 min without shaking.
The cells were washed with a plate washer buffer to remove the formaldehyde solution. The plate was flicked to removed excess wash buffer and tapped onto paper towels. Quenching buffer (100 μL) was added to each well and the cells were incubated at ambient temperature for 20 minutes without shaking.
The cells were washed with a plate washer buffer to remove the quenching buffer. Blocking buffer (100 μL) was added and the cells were incubated at ambient temperature for at least an hour with gentle shaking.
The cells were washed with a plate washer buffer and diluted primary antibody (50 μL) was added to each well (blocking buffer was added to the negative control wells instead). The plates were incubated overnight at 4° C. with gentle shaking.
The wash buffer was removed, diluted secondary antibody (100 μL) was added, and the cells were incubated at ambient temperature for 1 hour with gentle shaking. […]
For orientation: IC50 means the point on the concentration scale where inhibition reaches its midpoint. A lower IC50 goes with greater potency in that assay. For `CNC(=O)[C@H]1C[C@H]2C[C@H](C2(C)C)[C@@]1(C)Nc1nc(Nc2ccc(OCCN3CCCC3)cc2)ncc1Cl` [Compound 1, (1R,2R,3S,5R)-2-(5-chloro-2-(4-(2-(pyrrolidin-1-yl)ethoxy)phenylamino)pyrimidin-4-ylamino)-N,2,6,6-tetramethylbicyclo[3.1.1]heptane-3-carboxamide], the IC50 was < 1000 nM.

For the molecule `CCN(CC)C1CCN(c2ccc(Nc3ncc(C(F)(F)F)c(N[C@@]4(C)[C@@H](C(=O)NC)C[C@H]5C[C@@H]4C5(C)C)n3)cc2F)CC1` [Compound 52, (1R,2R,3S,5R)-2-(5-trifluoromethyl-2-(3-fluoro-4-(4-(diethylamino)piperidin-1-yl)phenylamino)pyrimidin-4-ylamino)-N,2,6,6-tetramethylbicyclo[3.1.1]heptane-3-carboxamide], the IC50 was < 1000 nM.

On to `CNC(=O)[C@H]1C[C@H]2C[C@H](C2(C)C)[C@@]1(C)Nc1nc(Nc2ccc(N3CCN(CCO)CC3)cc2)ncc1C` [Compound 42, (1R,2R,3S,5R)-2-(5-methyl-2-(4-(4-(2-hydroxyethyl)piperazin-1-yl)phenylamino)pyrimidin-4-ylamino)-N,2,6,6-tetramethylbicyclo[3.1.1]heptane-3-carboxamide], for which the IC50 is 1000 to 10000 nM.

Take `CN1CCN(c2ccc(Nc3ncc(Cl)c(N[C@@]4(CCOCc5ccccc5)[C@@H](C(N)=O)C[C@H]5C[C@@H]4C5(C)C)n3)cc2F)CC1` [Compound 17, (1R,2R,3S,5R)-2-(2-(benzyloxy)ethyl)-2-(5-chloro-2-(3-fluoro-4-(4-methylpiperazin-1-yl)phenylamino)pyrimidin-4-ylamino)-6,6-dimethylbicyclo[3.1.1]heptane-3-carboxamide]: the IC50 is > 20000 nM.

Regarding `CNC(=O)[C@H]1C[C@H]2C[C@H](C2(C)C)[C@@]1(C)Nc1nc(Nc2ccc(N3CCN(C(C)=O)CC3)c(C(F)(F)F)c2)ncc1F` [Compound 39, (1R,2R,3S,5R)-2-(5-fluoro-2-(3-trifluoromethyl-4-(4-acetylpiperazin-1-yl)phenylamino)pyrimidin-4-ylamino)-N,2,6,6-tetramethylbicyclo[3.1.1]heptane-3-carboxamide], the IC50 was > 20000 nM.

As to `CNC(=O)[C@H]1C[C@H]2C[C@H](C2(C)C)[C@@]1(C)Nc1nc(Nc2ccc(C(=O)N3CCN(C4CCCCC4)CC3)cc2)ncc1Cl` [Compound 10, (1R,2R,3S,5R)-2-(5-chloro-2-(4-(4-cyclohexylpiperazine-1-carbonyl)phenylamino)pyrimidin-4-ylamino)-N,2,6,6-tetramethylbicyclo[3.1.1]heptane-3-carboxamide], the IC50 is < 1000 nM.

Turning to `CNC(=O)[C@H]1C[C@H]2C[C@H](C2(C)C)[C@@]1(C)Nc1nc(Nc2ccc(C(=O)N3CCN(C)CC3)c(Cl)c2)ncc1Cl` [Compound 14], the IC50 is < 1000 nM.

`CNC(=O)[C@H]1C[C@H]2C[C@H](C2(C)C)[C@@]1(C)Nc1nc(Nc2ccc(N3CCN(C(C)=O)CC3)c(Cl)c2)ncc1F` [Compound 38, (1R,2R,3S,5R)-2-(5-fluoro-2-(3-chloro-4-(4-acetylpiperazin-1-yl)phenylamino)pyrimidin-4-ylamino)-N,2,6,6-tetramethylbicyclo[3.1.1]heptane-3-carboxamide] yielded an IC50 of 1000 to 10000 nM.

`CNC(=O)[C@H]1C[C@H]2C[C@H](C2(C)C)[C@@]1(C)Nc1nc(Nc2ccc(N3CCN(S(C)(=O)=O)CC3)c(Cl)c2)ncc1F` [Compound 36, (1R,2R,3S,5R)-2-(5-fluoro-2-(3-chloro-4-(4-methylsulfonylpiperazin-1-yl)phenylamino)pyrimidin-4-ylamino)-N,2,6,6-tetramethylbicyclo[3.1.1]heptane-3-carboxamide]: the IC50 lay in the range of 1000 to 10000 nM.

On to `CNC(=O)[C@H]1C[C@H]2C[C@H](C2(C)C)[C@@]1(C)Nc1nc(Nc2ccc(C3CCN(C)CC3)cc2)ncc1Cl` [Compound 12, (1R,2R,3S,5R)-2-(5-chloro-2-(4-(1-methylpiperidin-4-yl)phenylamino)pyrimidin-4-ylamino)-N,2,6,6-tetramethylbicyclo[3.1.1]heptane-3-carboxamide], for which the IC50 was < 1000 nM.

Take `CC1(C)[C@H]2C[C@H](C(N)=O)[C@](C)(Nc3nc(Nc4ccc(OCCN5CCCC5)cc4)ncc3Cl)[C@@H]1C2` [Compound 29, (1R,2R,3S,5R)-2-(5-chloro-2-(4-(2-(pyrrolidin-1-yl)ethoxy)phenylamino)pyrimidin-4-ylamino)-2,6,6-trimethylbicyclo[3.1.1]heptane-3-carboxamide]: the IC50 is < 1000 nM.

Turning to `CNC(=O)[C@H]1C[C@H]2C[C@H](C2(C)C)[C@@]1(C)Nc1nc(Nc2ccc(Cl)c(N3CCN(C(=O)OC)CC3)c2)ncc1Cl` [Compound 18, (1R,2R,3S,5R)-2-(2-(3-(4-(methoxycarbonyl)piperazin-1-yl)-4-chlorophenylamino)-5-chloropyrimidin-4-ylamino)-N,2,6,6-tetramethylbicyclo[3.1.1]heptane-3-carboxamide], the IC50 was > 20000 nM.

The assay is the same for the next values; noted with them: Table 3, formula (Ic); Hela cells, Axl antibody cross-linking stimulation, phospho-Akt chemiluminescence normalized to relative cell number.
For the molecule `CCN(CC)CCN1CCOc2cc(Nc3ncc(F)c(N[C@@]4(C)[C@@H](C(=O)NC)C[C@H]5C[C@@H]4C5(C)C)n3)ccc21` [Compound 46, (1R,2R,3S,5R)-2-(5-fluoro-2-((3,4-dihydro-4-(2-(diethylamino)ethyl)-2H-benzo[b][1,4]oxazin-7-yl)amino)pyrimidin-4-ylamino)-N,2,6,6-tetramethylbicyclo[3.1.1]heptane-3-carboxamide], the IC50 is < 1000 nM.

The same assay, now with this note: Table 4, formula (Id); Hela cells, Axl antibody cross-linking stimulation, phospho-Akt chemiluminescence normalized to relative cell number.
Regarding `CNC(=O)[C@H]1C[C@H]2C[C@H](C2(C)C)[C@@]1(C)Nc1nc(Nc2ccc3[nH]ccc3c2)ncc1Cl` [Compound 26, (1R,2R,3S,5R)-2-(2-(1H-indol-5-ylamino)-5-chloropyrimidin-4-ylamino)-N,2,6,6-tetramethylbicyclo[3.1.1]heptane-3-carboxamide], the IC50 is 1000 to 10000 nM.
